The text below walks through data of PubChem BioAssay (NCI).

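All cell lines were grown in 96-well plates and treated with compound for 48 hours. At the GI50, growth is halved. Definition used: TGI = concentration required for complete inhibition of growth.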

One assay relates to M14 melanoma. The assay can be described thus: DTP human tumour cell line panel, 48 h.
What is called GI50 is the concentration that inhibits growth by half. For orientation: TGI means the concentration giving total growth inhibition. A lower TGI goes with more potent growth arrest. In the case of `CN(C)CCNc1c2c(c(NCCN(C)C)c3[nH]ccc13)C(=O)c1ccccc1C2=O`, the GI50 is 3.68 µM and the TGI came out at 29.9 µM.

Compound `CCOC(=O)COc1ccccc1/C=C1\CCC(CN(C)C)C1=O` (centres undefined) had a TGI of 22.6 µM.

As to `CC1=Nc2ccccc2S/C1=C(/C)NNC(=O)C(N)=O`, the TGI was above 100 µM.

`Nn1c(NNC(=O)C(=O)Nc2cc(Cl)c(Cl)cc2Cl)n[nH]c1=S` gave a TGI above 100 µM.

With `Cc1[nH]ccc2c1[nH]c1cc(=O)ccc12`, the TGI was above 100 µM.

As to `NCCOCCOCCNc1nc(Cc2ccccc2)nc(NCCCN2CCCC2=O)n1`, the GI50 was above 100 µM and the TGI is above 100 µM.

As for `NC1C[C@H](n2cc(/C=C/Br)c(=O)[nH]c2=O)C[C@@H]1CO` (some centres undefined), the TGI is above 100 µM.

`O=C1CC(c2ccc(O)cc2)C2(O1)C(=O)OC(C(O)CO)C2O` (centres undefined): the TGI was above 100 µM.

`CC1=C(C)C(=O)c2c(cc3ccccn23)C1=O` yielded a TGI of 28.1 µM.

Take `COc1ccc(-c2n/c(=C\c3c(O)[nH]c4ccc(OC)cc34)cc3c2=Nc2ccccc2-3)cc1`: the GI50 was 1.98 µM and the TGI amounted to 3.59 µM.

Regarding `CC1SC2=NC3=C(c4ccccc4C3=O)C(c3ccc(F)cc3)N2C1=O` (centres undefined), the TGI was above 100 µM.

In the case of `COC(C(=O)[O][Ge]([CH3])([CH3])[CH3])c1ccccc1` (centres undefined), the GI50 was above 100 µM and the TGI is above 100 µM.

`CCCCC(CC)CN=C(N)NC(N)=NCCCCCCN=C(N)NC(N)=NCC(CC)CCCC` (centres undefined): the GI50 was 2.49 µM and the TGI stood at 6.03 µM.

For the compound `CC1C=C(OC(=O)c2ccccc2)C(=O)C(n2cc(F)c(=O)[nH]c2=O)O1` (centres undefined), the TGI is above 100 µM.

With `Nc1ccccc1C#C/C=C\C#Cc1cccs1`, the GI50 is 10.5 µM and the TGI was 30.9 µM.

Turning to `COc1ccc(-c2ccc(/C=N/n3c(COc4ccc(Cl)cc4Cl)nn(CN4CCOCC4)c3=S)o2)c([N+](=O)[O-])c1`, the GI50 was 26 µM and the TGI was determined as 72.6 µM.

As to `CCN(CC)c1ccc(C(=O)c2ccccc2C(=O)O)c(O)c1`, the TGI was above 100 µM.

The compound `COc1ccc(OC)c(NC(=O)C2=C(C)NC(C)=C(C(=O)Nc3cc(OC)ccc3OC)C2c2ccccc2)c1` had a TGI above 100 µM.

A further assay relates to IGROV1 ovarian. The assay can be described thus: DTP human tumour cell line panel, 48 h.
In turn, `COc1ccc2nc(-c3cccs3)cc(C(O)CN3CCSCC3)c2c1` (centres undefined) returned a TGI above 100 µM.

Consider `O=C(CN1CCOCC1)Nc1nc(-c2ccc(Cl)cc2)cs1`, for which the TGI was above 100 µM.

`COc1cc(C(=O)C/C(CCCC(=O)Nc2ccccc2[N+](=O)[O-])=N/NC(=O)c2cc3ccccc3cc2O)ccc1O` displayed a TGI above 100 µM.

Take `CN(C)CCCNC(CC#N)CCC#N` (centres undefined): the TGI was above 10 µM.

As for `CN(C)C(=O)OC(Cn1cncn1)c1ccc(Cl)cc1Cl` (centres undefined), the TGI was above 100 µM.

Turning to `CN(C)CCNc1c2c(c(NCCN(C)C)c3[nH]ccc13)C(=O)c1ccccc1C2=O`, the GI50 was 1.19 µM and the TGI was above 100 µM.

The compound `CCOC(=O)COc1ccccc1/C=C1\CCC(CN(C)C)C1=O` (centres undefined) displayed a TGI of 30.4 µM.

With `CC1=Nc2ccccc2S/C1=C(/C)NNC(=O)C(N)=O`, the TGI was above 100 µM.

`Nn1c(NNC(=O)C(=O)Nc2cc(Cl)c(Cl)cc2Cl)n[nH]c1=S` returned a TGI above 100 µM.

`Cc1[nH]ccc2c1[nH]c1cc(=O)ccc12` displayed a TGI above 100 µM.

As to `NCCOCCOCCNc1nc(Cc2ccccc2)nc(NCCCN2CCCC2=O)n1`, the GI50 is above 100 µM and the TGI was above 100 µM.

As to `Oc1cccc2ccc(N/N=C/c3cc(CN4CCCCC4)c(O)c4ncccc34)nc12`, the GI50 was 0.173 µM and the TGI was found to be 18.4 µM.

In turn, `O=C1CC(c2ccc(O)cc2)C2(O1)C(=O)OC(C(O)CO)C2O` (centres undefined) registered a TGI above 100 µM.

Compound `CC1=C(C)C(=O)c2c(cc3ccccn23)C1=O` came in with a TGI of 54.5 µM.

Turning to `COc1ccc(-c2n/c(=C\c3c(O)[nH]c4ccc(OC)cc34)cc3c2=Nc2ccccc2-3)cc1`, the GI50 is 12 µM and the TGI is above 100 µM.

As for `CC1SC2=NC3=C(c4ccccc4C3=O)C(c3ccc(F)cc3)N2C1=O` (centres undefined), the TGI is above 100 µM.

`COC(C(=O)[O][Ge]([CH3])([CH3])[CH3])c1ccccc1` (centres undefined): the GI50 is above 100 µM and the TGI was above 100 µM.

Compound `CC1C=C(OC(=O)c2ccccc2)C(=O)C(n2cc(F)c(=O)[nH]c2=O)O1` (centres undefined) displayed a TGI above 100 µM.

With `Nc1ccccc1C#C/C=C\C#Cc1cccs1`, the GI50 was 6.36 µM and the TGI is above 39.6 µM.

Compound `CCN(CC)c1ccc(C(=O)c2ccccc2C(=O)O)c(O)c1` gave a TGI above 100 µM.

The compound `COc1ccc(OC)c(NC(=O)C2=C(C)NC(C)=C(C(=O)Nc3cc(OC)ccc3OC)C2c2ccccc2)c1` registered a TGI above 100 µM.

A further assay has as its system SK-MEL-2 melanoma. Description: DTP human tumour cell line panel, 48 h.
Consider `COc1ccc(-c2nn3c(-c4cc(F)c(Cl)cc4Cl)nnc3s2)cc1`, for which the GI50 is 25.4 µM and the TGI turned out to be 60.1 µM.

`COc1ccc2nc(-c3cccs3)cc(C(O)CN3CCSCC3)c2c1` (centres undefined) displayed a TGI of 36 µM.

As to `O=C(CN1CCOCC1)Nc1nc(-c2ccc(Cl)cc2)cs1`, the TGI stood at 54.5 µM.

The compound `COc1cc(C(=O)C/C(CCCC(=O)Nc2ccccc2[N+](=O)[O-])=N/NC(=O)c2cc3ccccc3cc2O)ccc1O` displayed a TGI above 100 µM.

`CN(C)CCCNC(CC#N)CCC#N` (centres undefined): the concentration for total growth inhibition (TGI) is above 10 µM.

`CN(C)C(=O)OC(Cn1cncn1)c1ccc(Cl)cc1Cl` (centres undefined) registered a TGI above 100 µM.

`CCOC(=O)COc1ccccc1/C=C1\CCC(CN(C)C)C1=O` (centres undefined) gave a TGI of 24.7 µM.

Take `CC1=Nc2ccccc2S/C1=C(/C)NNC(=O)C(N)=O`: the TGI was above 100 µM.

The compound `Cc1[nH]ccc2c1[nH]c1cc(=O)ccc12` had a TGI above 100 µM.

As for `Oc1cccc2ccc(N/N=C/c3cc(CN4CCCCC4)c(O)c4ncccc34)nc12`, the GI50 is 0.0288 µM and the total growth inhibition concentration (TGI) is 0.0814 µM.

`O=C1CC(c2ccc(O)cc2)C2(O1)C(=O)OC(C(O)CO)C2O` (centres undefined): the TGI was above 100 µM.

Turning to `CC1SC2=NC3=C(c4ccccc4C3=O)C(c3ccc(F)cc3)N2C1=O` (centres undefined), the TGI is above 100 µM.

`CC1C=C(OC(=O)c2ccccc2)C(=O)C(n2cc(F)c(=O)[nH]c2=O)O1` (centres undefined) showed a TGI above 100 µM.

Take `Nc1ccccc1C#C/C=C\C#Cc1cccs1`: the GI50 was 16.2 µM and the TGI was determined as 43.3 µM.
